1 compound from US20070286895A1, “WOUND DRESSING” (BRISTOL-MYERS SQUIBB COMPANY, priority 2002, published 2007) can be followed below.

The data set deals with human whole skin. Kind of data set: Whole skin silver staining study, Franz type diffusion cell (Example 2). Particulars: dressing hydrated with 200 μl saline, 24 hours, 32° C., FIG. 1.

Method: Skin staining studies were carried out using an adaptation of a Franz type horizontal glass diffusion cell as described in Dugard et al, 1984. Whole human skin and wound tissue samples (1 cm^2 discs) were punched out using an Osborne arch punch and placed epidermal side uppermost on the receptor chamber. The donor chamber was then gently placed on top of the receptor chamber. The whole cell was clamped together and placed into a water bath maintained at 32° C.±1° C. The underlying whole skin was bathed in saline.
Individual silver-containing wound dressings (0.64 1 cm^2) were cut out and placed onto the centre of a piece of human whole skin. 200 μl of saline was placed into the donor chamber to hydrate each dressing to mimic a moderately exuding wound. Appoximately 5-10 mg of Flamazine cream was placed onto the skin and gently smoothed over the exposed skin surface by means of a small spatula. […] Each cell was left for 24 hours and images were taken using a Polaroid digital microscope camera.

As to `O=[N+]([O-])[O-].[Ag+]` [silver nitrate], the “silver staining of skin” value was “significant silver staining”.
